Source: publication PMC5615911 (Toxicology Reports, 2016)
Several values for one entry are separate records, joined by “and”; a condition that tells them apart may be missing. Equal values may be shown once.

How the values were obtained:
[1] = target: CYP3A4 (Homo sapiens, UniProt P08684); assay: CYP inhibition, LC–MS/MS assay in human liver microsomes; conditions: for inhibition at 10 µM: human, human liver microsomes
[2] = target: CYP2C19 (Homo sapiens, UniProt P33261); assay: as above; conditions: probe S-mephenytoin
[3] = Pharmacokinetics of S3643, single iv or oral dose; assay type: in vivo, Sprague-Dawley rats; conditions: for AUC(0-t): AUClast
[4] = system: Chinese hamster ovary cells (CHO-WBL); assay: In vitro micronucleus test; assay type: cell-based
[5] = system: E. coli strain WP2 uvrA; assay: Bacterial reverse mutation test; assay type: cell-based
[6] = system: S. typhimurium strains TA98, TA100, TA1535, TA1537; assay: Bacterial reverse mutation test; assay type: cell-based
[7] = 90-day subchronic toxicity study; assay type: in vivo, Sprague-Dawley rats
[8] = system: human umami receptor; conditions: cited from earlier work
[9] = target: hERG (Homo sapiens, UniProt Q12809); assay: hERG electrophysiology
[10] = In vitro metabolism, human liver microsomes; assay type: in vitro ADME; conditions: 60 min, 10 μM S3643, relative to S3643 peak area at time 0
[11] = 28-day dose-range finding toxicity study; assay type: in vivo, Sprague-Dawley rats; conditions: 10, 30, 100 mg/kg bw/day (food ad-mix)
[12] = Toxicokinetics in the 90-day dietary study; assay type: in vivo, Sprague-Dawley rats; conditions: for AUC0–24 h/dose / Cmax/dose: M+F combined
[13] = In vivo metabolism of S3643, single oral dose 100 mg/kg bw; set-up: species or system Sprague-Dawley rats
[14] = female, Sprague-Dawley, rat, plasma, iv, 1 mg/kg
[15] = female, Sprague-Dawley, rat, plasma, po
[16] = female, Sprague-Dawley, rat, plasma, po, 10 mg/kg
[17] = female, Sprague-Dawley, rat, plasma, po, 30 mg/kg
[18] = female, Sprague-Dawley, rat, plasma, po, 100 mg/kg
[19] = female, iv 1.0 mg/kg bw, 1 mg/kg
[20] = male, Sprague-Dawley, rat, plasma, iv, 1 mg/kg
[21] = male, Sprague-Dawley, rat, plasma, po
[22] = male, Sprague-Dawley, rat, plasma, po, 10 mg/kg
[23] = male, Sprague-Dawley, rat, plasma, po, 30 mg/kg
[24] = male, Sprague-Dawley, rat, plasma, po, 100 mg/kg
[25] = absence and presence of metabolic activation
[26] = 10, 30, 100 mg/kg bw/day (food ad-mix)
[27] = both, Sprague-Dawley, rat, plasma, oral, 100 mg/kg bw
[28] = rat plasma at 1 h, males and females combined

Sequence of CYP3A4 (P08684 whole entry): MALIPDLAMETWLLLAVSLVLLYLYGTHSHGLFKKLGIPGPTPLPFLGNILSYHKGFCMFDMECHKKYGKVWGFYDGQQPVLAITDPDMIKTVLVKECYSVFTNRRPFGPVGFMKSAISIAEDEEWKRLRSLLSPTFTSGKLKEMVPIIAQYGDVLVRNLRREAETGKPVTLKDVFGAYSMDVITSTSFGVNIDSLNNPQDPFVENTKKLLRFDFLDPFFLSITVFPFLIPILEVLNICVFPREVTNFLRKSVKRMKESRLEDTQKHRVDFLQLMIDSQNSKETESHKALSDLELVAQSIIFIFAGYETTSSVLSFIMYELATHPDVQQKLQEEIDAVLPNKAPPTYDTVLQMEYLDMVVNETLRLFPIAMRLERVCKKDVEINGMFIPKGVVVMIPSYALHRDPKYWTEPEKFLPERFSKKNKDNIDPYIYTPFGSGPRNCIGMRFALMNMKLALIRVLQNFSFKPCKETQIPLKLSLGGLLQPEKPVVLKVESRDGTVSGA
Sequence of CYP2C19 (P33261 whole entry): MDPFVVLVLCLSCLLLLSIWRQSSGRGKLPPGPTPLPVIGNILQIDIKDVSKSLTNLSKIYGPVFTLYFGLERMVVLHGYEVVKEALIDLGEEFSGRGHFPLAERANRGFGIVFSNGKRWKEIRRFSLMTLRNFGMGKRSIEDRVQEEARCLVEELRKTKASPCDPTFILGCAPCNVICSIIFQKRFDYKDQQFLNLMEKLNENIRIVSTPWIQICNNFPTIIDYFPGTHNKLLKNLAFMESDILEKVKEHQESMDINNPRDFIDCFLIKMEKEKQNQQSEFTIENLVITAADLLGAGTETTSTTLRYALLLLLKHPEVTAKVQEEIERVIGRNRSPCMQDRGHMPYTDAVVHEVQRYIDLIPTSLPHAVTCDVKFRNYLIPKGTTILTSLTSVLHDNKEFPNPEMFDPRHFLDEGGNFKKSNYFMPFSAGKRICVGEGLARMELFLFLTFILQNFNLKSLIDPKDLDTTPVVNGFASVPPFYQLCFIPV
Sequence of hERG (Q12809 whole entry): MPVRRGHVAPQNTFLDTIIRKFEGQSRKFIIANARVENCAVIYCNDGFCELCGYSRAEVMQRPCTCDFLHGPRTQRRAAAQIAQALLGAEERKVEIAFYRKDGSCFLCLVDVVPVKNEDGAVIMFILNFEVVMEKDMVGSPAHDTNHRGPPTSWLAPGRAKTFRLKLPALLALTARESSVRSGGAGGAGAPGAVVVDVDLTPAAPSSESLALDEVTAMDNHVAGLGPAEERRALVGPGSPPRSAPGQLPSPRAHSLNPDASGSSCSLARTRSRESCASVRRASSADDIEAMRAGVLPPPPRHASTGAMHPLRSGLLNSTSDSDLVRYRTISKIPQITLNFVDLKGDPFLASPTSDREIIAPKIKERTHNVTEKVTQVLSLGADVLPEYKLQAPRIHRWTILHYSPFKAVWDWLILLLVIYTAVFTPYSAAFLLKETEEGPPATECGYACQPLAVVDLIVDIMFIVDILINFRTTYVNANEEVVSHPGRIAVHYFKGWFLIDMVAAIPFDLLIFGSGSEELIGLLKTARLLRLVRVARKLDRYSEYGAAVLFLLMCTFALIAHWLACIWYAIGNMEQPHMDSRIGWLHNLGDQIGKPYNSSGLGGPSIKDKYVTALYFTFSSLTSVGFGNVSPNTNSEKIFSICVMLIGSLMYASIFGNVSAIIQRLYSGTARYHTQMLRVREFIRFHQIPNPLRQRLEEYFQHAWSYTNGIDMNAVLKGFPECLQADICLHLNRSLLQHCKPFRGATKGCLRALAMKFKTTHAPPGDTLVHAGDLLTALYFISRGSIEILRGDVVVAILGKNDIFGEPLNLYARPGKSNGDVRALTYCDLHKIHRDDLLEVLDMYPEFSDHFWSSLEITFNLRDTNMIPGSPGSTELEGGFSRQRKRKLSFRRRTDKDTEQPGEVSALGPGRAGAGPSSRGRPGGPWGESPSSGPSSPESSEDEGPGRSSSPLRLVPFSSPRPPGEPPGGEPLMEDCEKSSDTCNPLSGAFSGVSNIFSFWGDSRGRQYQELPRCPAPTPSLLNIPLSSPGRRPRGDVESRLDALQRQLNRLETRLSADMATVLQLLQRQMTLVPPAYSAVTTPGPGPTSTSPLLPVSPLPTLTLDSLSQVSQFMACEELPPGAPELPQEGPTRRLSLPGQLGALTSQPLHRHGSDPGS

## COc1cccc(-c2n[nH]c(SCc3ccccn3)n2)c1OC [S3643, 2-(((3-(2,3-dimethoxyphenyl)-1H-1,2,4-triazol-5-yl)thio)methyl)pyridine]
[1]
  IC50: > 10 µM
  inhibition at 10 µM: < 50%
[1]; probe midazolam
  inhibition at 10 µM: 30%
[2]
  inhibition at 10 µM: 13%
[3]; female
  Fold increase in AUClast for 10-fold increase in oral dose: 16.8 fold
[3]; [14]
  Tmax: 1.8 min
  Vd: 0.325 L/kg
  clearance: 8.03 mL/min/kg
  half-life: 9.6 min
[3]; [15]
  bioavailability: 67.4 to 116%
  half-life: 53.4 to 99.6 min
[3]; [16]
  Tmax: 15 min
  bioavailability: 67.4%
  half-life: 53.4 min
[3]; female, Sprague-Dawley, rat, plasma, po, 10 mg/kg, oral 10 mg/kg bw
  AUC(0-t): 14200 ng·h/mL
[3]; female, Sprague-Dawley, rat, plasma, po, 10 mg/kg, Cmax, oral 10 mg/kg bw
  Cmax: 14900 ng/mL
[3]; [17]
  Tmax: 15 min
  bioavailability: 116%
  half-life: 68.4 min
[3]; female, Sprague-Dawley, rat, plasma, po, 30 mg/kg, oral 30 mg/kg bw
  AUC(0-t): 73500 ng·h/mL
[3]; female, Sprague-Dawley, rat, plasma, po, 30 mg/kg, Cmax, oral 30 mg/kg bw
  Cmax: 45400 ng/mL
[3]; [18]
  Tmax: 22.8 min
  bioavailability: 113%
  half-life: 99.6 min
[3]; female, Sprague-Dawley, rat, plasma, po, 100 mg/kg, oral 100 mg/kg bw
  AUC(0-t): 239000 ng·h/mL
[3]; female, Sprague-Dawley, rat, plasma, po, 100 mg/kg, Cmax, oral 100 mg/kg bw
  Cmax: 98900 ng/mL and 310 µM
[3]; female, iv
  CL as % of hepatic blood flow: 14.5%
  Vss as % of total body water volume: 48.6%
[3]; female, iv 1.0 mg/kg bw
  AUC0-last/dose: 2110 ng·h/mL/mg/kg
[3]; [19]
  AUC0-last: 2110 ± 353 ng·h/mL
  Cmax: 9840 ± 1880 ng/mL
[3]; female, oral gavage 10 mg/kg bw
  AUC0-last/dose: 1423 ng·h/mL/mg/kg
[3]; female, oral gavage 30 mg/kg bw
  AUC0-last/dose: 2450 ng·h/mL/mg/kg
[3]; female, oral gavage 100 mg/kg bw
  AUC0-last/dose: 2393 ng·h/mL/mg/kg
[3]; iv 1 mg/kg
  Female/male ratio of mean AUClast: 0.76
  Female/male ratio of mean Cmax: 0.91
[3]; male
  Fold increase in AUClast for 10-fold increase in oral dose: 6.88 fold
[3]; [20]
  Tmax: 1.8 min
  Vd: 0.337 L/kg
  clearance: 5.97 mL/min/kg
  half-life: 11.4 min
[3]; [21]
  bioavailability: 65.7 to 96%
  half-life: 48 to 99.6 min
[3]; [22]
  Tmax: 15 min
  bioavailability: 95.5%
  half-life: 48 min
[3]; male, Sprague-Dawley, rat, plasma, po, 10 mg/kg, oral 10 mg/kg bw
  AUC(0-t): 26600 ng·h/mL
[3]; male, Sprague-Dawley, rat, plasma, po, 10 mg/kg, Cmax, oral 10 mg/kg bw
  Cmax: 32500 ng/mL
[3]; [23]
  Tmax: 26.4 min
  bioavailability: 96%
  half-life: 58.2 min
[3]; male, Sprague-Dawley, rat, plasma, po, 30 mg/kg, oral 30 mg/kg bw
  AUC(0-t): 80300 ng·h/mL
[3]; male, Sprague-Dawley, rat, plasma, po, 30 mg/kg, Cmax, oral 30 mg/kg bw
  Cmax: 50900 ng/mL
[3]; [24]
  Tmax: 18.6 min
  bioavailability: 65.7%
  half-life: 99.6 min
[3]; male, Sprague-Dawley, rat, plasma, po, 100 mg/kg, oral 100 mg/kg bw
  AUC(0-t): 183000 ng·h/mL
[3]; male, Sprague-Dawley, rat, plasma, po, 100 mg/kg, Cmax, oral 100 mg/kg bw
  Cmax: 78300 ng/mL and 238 µM
[3]; male, iv
  CL as % of hepatic blood flow: 10.8%
  Vss as % of total body water volume: 50.4%
[3]; male, iv 1.0 mg/kg bw
  AUC0-last/dose: 2790 ng·h/mL/mg/kg
[3]; male, iv 1.0 mg/kg bw, 1 mg/kg
  AUC0-last: 2790 ± 187 ng·h/mL
  Cmax: 10870 ± 1870 ng/mL
[3]; male, oral gavage 10 mg/kg bw
  AUC0-last/dose: 2665 ng·h/mL/mg/kg
[3]; male, oral gavage 10 mg/kg bw, 10 mg/kg
  Cmax: 32510 ± 7710 ng/mL
[3]; male, oral gavage 30 mg/kg bw
  AUC0-last/dose: 2678 ng·h/mL/mg/kg
[3]; male, oral gavage 100 mg/kg bw
  AUC0-last/dose: 1833 ng·h/mL/mg/kg
[4]; 16–63 μg/mL, 19 h exposure, −S9
  Micronucleus formation (in vitro), result: Negative
[4]; 50–200 μg/mL, 3 h exposure, +S9
  Micronucleus formation (in vitro), result: Negative
[4]; 100–300 μg/mL, 3 h exposure, −S9
  Micronucleus formation (in vitro), result: Negative
[4]; 3 h, +S9, 50 μg/mL
  % cells in cytostasis: −1%
[4]; 3 h, +S9, 100 μg/mL
  % cells in cytostasis: −2%
[4]; 3 h, −S9, 100 μg/mL
  % cells in cytostasis: 1%
[4]; 3 h, −S9, 200 μg/mL
  % cells in cytostasis: 0%
[4]; 3 h, −S9, 300 μg/mL
  % cells in cytostasis: 25%
[4]; 3 h, −S9, 450 μg/mL
  % cells in cytostasis: 93%
[4]; 19 h, −S9, 16 μg/mL
  % cells in cytostasis: 10%
[4]; 19 h, −S9, 63 μg/mL
  % cells in cytostasis: 50%
[4]; 19 h, −S9, 130 μg/mL
  % cells in cytostasis: 93%
[4]; all conditions
  Induction of micronuclei, conclusion: did not induce micronuclei
[5]; 250–5000 μg/plate, plate incorporation and pre-incubation, ±S9
  Reverse mutation (in vitro), result: Negative
[5]; [25]
  Mutagenicity, conclusion: not mutagenic
[6]; 63–1000 μg/plate, preincubation, +S9
  Reverse mutation (in vitro), result: Negative
[6]; 130–2000 μg/plate, plate incorporation, ±S9
  Reverse mutation (in vitro), result: Negative
[6]; 130–2000 μg/plate, preincubation, −S9
  Reverse mutation (in vitro), result: Negative
[6]; [25]
  Mutagenicity, conclusion: not mutagenic
[7]; [26]
  Findings, adverse effects: No adverse test-article related findings
  Findings, body weight: Lower body weight gain in females at 100 mg/kg/day
[7]; 90 days in diet, male and female rats, highest dose tested
  NOAEL: 100 mg/kg bw/day
[7]; females, 100 mg/kg bw/day, beginning at Week 5
  Mean body weight lower than controls: 7%
[7]; males, 100 mg/kg bw/day
  Absolute liver weight increase vs control: 12.5%
  Liver/body weight increase vs control: 14.1%
  Liver/brain weight increase vs control: 13.5%
[7]; rat, in vivo
  Margin of safety (NOAEL vs per capita intake 5 μg/kg bw/day): > 20,000 fold
[8]
  Concentration lower than MSG for equivalent umami flavour effect: 1000 fold
[9]
  inhibition at 10 µM: < 10%
[10]
  % MS Peak Area, Human: 54.9%
[11]
  Findings: No test-article related findings
[12]; Day 7, nominal 10 mg/kg bw
  AUC0–24 h/dose: 574 ng·h/mL/mg/kg
  Cmax/dose: 31.9 ng/mL/mg/kg
[12]; Day 7, nominal 30 mg/kg bw
  AUC0–24 h/dose: 1140 ng·h/mL/mg/kg
  Cmax/dose: 80.6 ng/mL/mg/kg
[12]; Day 7, nominal 100 mg/kg bw
  AUC0–24 h/dose: 1280 ng·h/mL/mg/kg
  Cmax/dose: 75.7 ng/mL/mg/kg
[12]; Day 90, nominal 10 mg/kg bw
  AUC0–24 h/dose: 1070 ng·h/mL/mg/kg
  Cmax/dose: 78.3 ng/mL/mg/kg
[12]; Day 90, nominal 30 mg/kg bw
  AUC0–24 h/dose: 1560 ng·h/mL/mg/kg
  Cmax/dose: 98.0 ng/mL/mg/kg
[12]; Day 90, nominal 100 mg/kg bw
  AUC0–24 h/dose: 1730 ng·h/mL/mg/kg
  Cmax/dose: 97.5 ng/mL/mg/kg
[12]; Day 90/Day 7, nominal 10 mg/kg bw
  ACUM Ratio: 1.86
[12]; Day 90/Day 7, nominal 30 mg/kg bw
  ACUM Ratio: 1.37
[12]; Day 90/Day 7, nominal 100 mg/kg bw
  ACUM Ratio: 1.35
[12]; both, Sprague-Dawley (Crl:CD(SD)), rat, plasma, po, 100 mg/kg bw/day, Combined mean AUC0-24hr, Day 90, 100 mg/kg bw/day
  AUC(0-t): 184000 ng·h/mL
[13]; [27]
  concentration at 0.25 h: 86000 ng/mL
  concentration at 0.5 h: 81400 ng/mL
  concentration at 1 h: 55900 ng/mL
  concentration at 2 h: 29200 ng/mL
  concentration at 4 h: 14100 ng/mL
  concentration at 8 h: 4830 ng/mL
  concentration at 24 h: 63 ng/mL
[13]; [28]
  % Peak Area: 55.52%
  Peak Area (×10^6): 69.9
